From patent US20020137929A1, “1 - (3-heterocyclylphenyl) isothiourea, -isourea, -guanidine and -amidine herbicidal agents” (Intellectual Property Department, BASF Aktiengesellschaft, priority 1998, published 2002)

Tests used:
MOOVA (Monochoria) = assay: Preemergence weed control under flooded paddy conditions; type: in vivo, Monochoria vaginalis; conditions: rated 3-4 weeks after treatment
How it was run: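 Seeds or propagules sown in silt loam kept flooded 1.5-3 cm; compounds in 50/50 acetone/water pipetted into flood water at about 0.0313 to 0.500 kg/ha. Greenhouse; visual 0-9 rating versus untreated control 3-4 weeks after treatment.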

[1] = test system: ECHORC (Watergrass (Calif.)); assay: as above; type: in vivo, Echinochloa oryzoides; conditions: rated 3-4 weeks after treatment
How it was run: (§1)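 Silt loam, seeds in top 0.5 cm; flood held 1.5-3 cm; test cpd as acetone/water 50/50 into flood water, ~0.0313-0.500 kg/ha a.i.; greenhouse 3-4 wk; visual 0-9 score vs control.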

GALAP (Galium) = assay: Postemergence herbicidal evaluation; type: in vivo, Galium aparine
How it was run: (§2)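 Compound is applied as a foliar spray to seedlings about two weeks old, formulated in equal parts acetone and water with 0.5% TWEEN 20 and delivered at 40 psi to give about 0.0156–0.500 kg per hectare. Injury is rated visually 0–9 after four to five weeks.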

ORYSAT (Rice, Tebonnet) = assay: Postemergence herbicidal evaluation; type: in vivo, Oryza sativa, (L.) Tebonnet
How it was run: as §2

CYPIR (Rice Flatsedge) [2] = assay: Postemergence weed control under flooded paddy conditions; type: in vivo, Cyperus iria; conditions: postemergence weeds, 3-4 weeks after treatment
From the text: Results of herbicide evaluation are expressed on a rating scale (0-9). The scale is based upon a visual observation of plant stand, vigor, malformation, size, chlorosis and overall plant appearance as compared with a control.
Plastic containers containing weeds which are 3 to 5 cm tall and rice seedlings at the 1.5 to 2.5 leaf stage are flooded with water. The water is maintained at 1.5 to 3 cm above the soil surface for the duration of the experiment. Test compounds are applied as aqueous/ acetone mixtures 50/50 v/v directly into the flood water to provide the equivalent of about 0.0313 to 0.500 kg/ha of active ingredient. The treated containers are placed on greenhouse benches and cared for in accordance with conventional greenhouse procedures. Three to four weeks after treatment, the test is terminated and each container is examined and herbicidal effect rated according to the rating system provided in Example 37. The compounds evaluated are reported by compound number given in Example 37.

[3] = test system: TRZAWR (Wheat, Winter, cv Riband); assay: Preemergence herbicidal evaluation; type: in vivo, Triticum aestivum; conditions: rated 4-5 weeks after treatment
How it was run: (§3)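 Rating at 4–5 wk post-spray on a 0–9 visual scale vs control. Application: aqueous acetone, ~0.0156–0.500 kg/ha, to soil surface after seeding, preemergence.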

ZEAMX (Corn, Field) = assay: Preemergence herbicidal evaluation; type: in vivo, Zea mays; conditions: rated 4-5 weeks after treatment
How it was run: as §3

CYPIR (Rice Flatsedge) [4] = assay: Preemergence weed control under flooded paddy conditions; type: in vivo, Cyperus iria; conditions: rated 3-4 weeks after treatment
How it was run: as §1

CYPSE (Flatsedge) = assay: Postemergence weed control under flooded paddy conditions; type: in vivo, Cyperus serotinus; conditions: postemergence weeds, 3-4 weeks after treatment
How it was run: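 With weeds 3 to 5 cm tall and rice at the 1.5 to 2.5 leaf stage, containers were flooded and water held 1.5 to 3 cm above soil. Compounds in 50/50 v/v aqueous/acetone went into the flood water at about 0.0313 to 0.500 kg/ha a.i. Effects were visually rated 0–9 against controls after three to four weeks in the greenhouse.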

ABUTH (Velvetleaf) = assay: Postemergence herbicidal evaluation; type: in vivo, Abutilon theophrasti
How it was run: as §2

[5] = test system: IPOHE (Morningglory, Ivyleaf); assay: Preemergence herbicidal evaluation; type: in vivo, Ipomoea hederacea; conditions: rated 4-5 weeks after treatment
How it was run: as §3

ECHCG (Barnyardgrass) = assay: Postemergence herbicidal evaluation; type: in vivo, Echinochloa crus-galli
How it was run: as §2

SETVI (Foxtail, Green) = assay: Postemergence herbicidal evaluation; type: in vivo, Setaria viridis
How it was run: as §2

C=CCN1C(=O)C(CC(=O)Nc2ccccc2)SC1=Nc1cc(-n2c(=O)cc(C(F)(F)F)n(C)c2=O)c(F)cc1Cl (stereo not shown) [Compound 44, 3-Allyl-2-{{2-chloro-5-[3,6-dihydro-3-methyl-2,6-dioxo-4-(trifluoromethyl)-1(2H)-pyrimidinyl]-4-fluorophenyl}imino}-4-oxo-5-thiazolidineacetanilide]
Herbicidal rating MOOVA (MOOVA (Monochoria); 0.0313 kg/ha): 4.0 | Herbicidal rating MOOVA (MOOVA (Monochoria); 0.0625 kg/ha): 4.0 | Herbicidal rating MOOVA (MOOVA (Monochoria); 0.1250 kg/ha): 7.0 | Herbicidal rating MOOVA (MOOVA (Monochoria); 0.2500 kg/ha): 9.0 | Herbicidal rating ECHORC ([1]; 0.0313 kg/ha): 6.0 | Herbicidal rating ECHORC ([1]; 0.0625 kg/ha): 6.0 | Herbicidal rating ECHORC ([1]; 0.1250 kg/ha): 7.0 | Herbicidal rating ECHORC ([1]; 0.2500 kg/ha): 8.0 | Postemergence herbicidal rating GALAP (GALAP (Galium); Rate 0.0156 kg/ha): 0.0 | Postemergence herbicidal rating GALAP (GALAP (Galium); Rate 0.0313 kg/ha): 1.0 | Postemergence herbicidal rating GALAP (GALAP (Galium); Rate 0.0625 kg/ha): 1.0 | Postemergence herbicidal rating GALAP (GALAP (Galium); Rate 0.1250 kg/ha): 1.0 | Postemergence herbicidal rating ORYSAT (ORYSAT (Rice, Tebonnet); Rate 0.0156 kg/ha): 3.0 | Postemergence herbicidal rating ORYSAT (ORYSAT (Rice, Tebonnet); Rate 0.0313 kg/ha): 4.0 | Postemergence herbicidal rating ORYSAT (ORYSAT (Rice, Tebonnet); Rate 0.0625 kg/ha): 4.0 | Postemergence herbicidal rating ORYSAT (ORYSAT (Rice, Tebonnet); Rate 0.1250 kg/ha): 4.0 | Herbicidal rating CYPIR (CYPIR (Rice Flatsedge) [2]; rate 0.0313 kg/ha): 5.0 | Herbicidal rating CYPIR (CYPIR (Rice Flatsedge) [2]; rate 0.0625 kg/ha): 6.0 | Herbicidal rating CYPIR (CYPIR (Rice Flatsedge) [2]; rate 0.1250 kg/ha): 6.0 | Herbicidal rating CYPIR (CYPIR (Rice Flatsedge) [2]; rate 0.2500 kg/ha): 9.0 | Preemergence herbicidal rating TRZAWR ([3]; rate 0.0156 kg/ha): 0.0 | Preemergence herbicidal rating TRZAWR ([3]; rate 0.0313 kg/ha): 0.0 | Preemergence herbicidal rating TRZAWR ([3]; rate 0.0625 kg/ha): 0.0 | Preemergence herbicidal rating TRZAWR ([3]; rate 0.1250 kg/ha): 0.0 | Preemergence herbicidal rating TRZAWR ([3]; rate 0.2500 kg/ha): 0.0 | Preemergence herbicidal rating TRZAWR ([3]; rate 0.5000 kg/ha): 0.0 | Preemergence herbicidal rating ZEAMX (ZEAMX (Corn, Field); rate 0.0156 kg/ha): 0.0 | Preemergence herbicidal rating ZEAMX (ZEAMX (Corn, Field); rate 0.0313 kg/ha): 0.0 | Preemergence herbicidal rating ZEAMX (ZEAMX (Corn, Field); rate 0.0625 kg/ha): 0.0 | Preemergence herbicidal rating ZEAMX (ZEAMX (Corn, Field); rate 0.1250 kg/ha): 1.0 | Preemergence herbicidal rating ZEAMX (ZEAMX (Corn, Field); rate 0.2500 kg/ha): 0.0 | Preemergence herbicidal rating ZEAMX (ZEAMX (Corn, Field); rate 0.5000 kg/ha): 0.0 | Herbicidal rating CYPIR (CYPIR (Rice Flatsedge) [4]; 0.0313 kg/ha): 5.0 | Herbicidal rating CYPIR (CYPIR (Rice Flatsedge) [4]; 0.0625 kg/ha): 6.0 | Herbicidal rating CYPIR (CYPIR (Rice Flatsedge) [4]; 0.1250 kg/ha): 6.0 | Herbicidal rating CYPIR (CYPIR (Rice Flatsedge) [4]; 0.2500 kg/ha): 9.0 | Herbicidal rating CYPSE (CYPSE (Flatsedge); rate 0.0313 kg/ha): 0.0 | Herbicidal rating CYPSE (CYPSE (Flatsedge); rate 0.0625 kg/ha): 0.0 | Herbicidal rating CYPSE (CYPSE (Flatsedge); rate 0.1250 kg/ha): 0.0 | Herbicidal rating CYPSE (CYPSE (Flatsedge); rate 0.2500 kg/ha): 0.0 | Postemergence herbicidal rating ABUTH (ABUTH (Velvetleaf); Rate 0.0156 kg/ha): 9.0 | Postemergence herbicidal rating ABUTH (ABUTH (Velvetleaf); Rate 0.0313 kg/ha): 7.0 | Postemergence herbicidal rating ABUTH (ABUTH (Velvetleaf); Rate 0.0625 kg/ha): 9.0 | Postemergence herbicidal rating ABUTH (ABUTH (Velvetleaf); Rate 0.1250 kg/ha): 9.0 | Preemergence herbicidal rating IPOHE ([5]; rate 0.0156 kg/ha): 0.0 | Preemergence herbicidal rating IPOHE ([5]; rate 0.0313 kg/ha): 0.0 | Preemergence herbicidal rating IPOHE ([5]; rate 0.0625 kg/ha): 0.0 | Preemergence herbicidal rating IPOHE ([5]; rate 0.1250 kg/ha): 1.0 | Preemergence herbicidal rating IPOHE ([5]; rate 0.2500 kg/ha): 0.0 | Preemergence herbicidal rating IPOHE ([5]; rate 0.5000 kg/ha): 0.0 | Postemergence herbicidal rating ECHCG (ECHCG (Barnyardgrass); Rate 0.0156 kg/ha): 0.0 | Postemergence herbicidal rating ECHCG (ECHCG (Barnyardgrass); Rate 0.0313 kg/ha): 1.0 | Postemergence herbicidal rating ECHCG (ECHCG (Barnyardgrass); Rate 0.0625 kg/ha): 2.0 | Postemergence herbicidal rating ECHCG (ECHCG (Barnyardgrass); Rate 0.1250 kg/ha): 1.0 | Postemergence herbicidal rating SETVI (SETVI (Foxtail, Green); Rate 0.0156 kg/ha): 0.0 | Postemergence herbicidal rating SETVI (SETVI (Foxtail, Green); Rate 0.0313 kg/ha): 0.0 | Postemergence herbicidal rating SETVI (SETVI (Foxtail, Green); Rate 0.0625 kg/ha): 2.0 | Postemergence herbicidal rating SETVI (SETVI (Foxtail, Green); Rate 0.1250 kg/ha): 2.0
